From ChEMBL document CHEMBL1133322, “The synthesis and vasopressin (AVP) antagonist activity of a novel series of N-aroyl-2,4,5,6-tetrahydropyrazolo[3,4-d]thieno[3,2-b]azepines” (Bioorg Med Chem Lett, 2000)

What was measured:
Rattus norvegicus [1] = assay: Urine volume was measured after 4 hours following oral compound dose of 10 mg/kg in rats deprived of food or water (water-loaded 30 mL/kg + 0.4 ug/kg of AVP intraperitoneal); format: functional
Vasopressin V2 receptor [2] = molecular target: T1, Vasopressin V2 receptor (Rattus norvegicus, UniProt Q00788); assay: Binding affinity to rat V2 receptor
T1 sequence (Q00788 whole entry): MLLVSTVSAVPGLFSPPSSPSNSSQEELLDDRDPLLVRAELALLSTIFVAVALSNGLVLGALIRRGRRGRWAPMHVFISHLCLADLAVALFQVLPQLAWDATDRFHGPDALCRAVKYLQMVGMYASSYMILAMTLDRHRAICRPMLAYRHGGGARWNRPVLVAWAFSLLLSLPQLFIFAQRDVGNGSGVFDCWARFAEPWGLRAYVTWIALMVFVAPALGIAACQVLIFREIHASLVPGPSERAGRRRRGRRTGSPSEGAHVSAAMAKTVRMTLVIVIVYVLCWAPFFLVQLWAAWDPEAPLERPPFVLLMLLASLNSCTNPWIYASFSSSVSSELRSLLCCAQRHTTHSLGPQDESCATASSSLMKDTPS

Vasopressin V2 receptor [3] = molecular target: T2, Vasopressin V2 receptor (Homo sapiens, UniProt P30518); assay: In vitro binding affinity to human V2 receptor
T2 sequence (P30518 whole entry): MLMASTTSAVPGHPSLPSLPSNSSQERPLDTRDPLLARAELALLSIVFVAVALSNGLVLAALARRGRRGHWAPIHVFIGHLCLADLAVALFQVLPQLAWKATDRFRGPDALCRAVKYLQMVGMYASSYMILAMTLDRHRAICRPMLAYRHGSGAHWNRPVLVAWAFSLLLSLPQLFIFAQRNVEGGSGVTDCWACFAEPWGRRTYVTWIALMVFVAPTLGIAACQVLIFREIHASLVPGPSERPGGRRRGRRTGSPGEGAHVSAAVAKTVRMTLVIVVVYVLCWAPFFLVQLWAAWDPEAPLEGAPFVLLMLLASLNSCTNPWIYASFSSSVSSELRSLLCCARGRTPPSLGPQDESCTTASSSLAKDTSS

Vasopressin V1a receptor [4] = molecular target: Vasopressin V1a receptor (Rattus norvegicus, UniProt P30560); assay: In vitro binding affinity for rat V1a receptor
Chain of Vasopressin V1a receptor (Rattus norvegicus, UniProt P30560) (P30560 whole entry): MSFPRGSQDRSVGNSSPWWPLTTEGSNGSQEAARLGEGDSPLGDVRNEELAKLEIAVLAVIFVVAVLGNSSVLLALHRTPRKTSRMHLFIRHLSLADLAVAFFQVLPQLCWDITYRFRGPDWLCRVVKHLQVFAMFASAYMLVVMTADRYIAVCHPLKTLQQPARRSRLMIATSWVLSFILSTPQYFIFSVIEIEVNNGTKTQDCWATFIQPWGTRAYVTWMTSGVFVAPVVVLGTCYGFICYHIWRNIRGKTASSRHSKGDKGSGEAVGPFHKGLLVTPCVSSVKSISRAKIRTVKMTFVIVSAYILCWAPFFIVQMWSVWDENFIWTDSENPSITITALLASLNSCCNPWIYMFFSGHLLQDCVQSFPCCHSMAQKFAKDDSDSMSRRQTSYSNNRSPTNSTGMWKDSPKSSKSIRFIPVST

Vasopressin V1a receptor [5] = molecular target: T3, Vasopressin V1a receptor (Homo sapiens, UniProt P37288); assay: In vitro binding affinity to human V1a receptor
Target sequence in this assay (P37288 whole entry): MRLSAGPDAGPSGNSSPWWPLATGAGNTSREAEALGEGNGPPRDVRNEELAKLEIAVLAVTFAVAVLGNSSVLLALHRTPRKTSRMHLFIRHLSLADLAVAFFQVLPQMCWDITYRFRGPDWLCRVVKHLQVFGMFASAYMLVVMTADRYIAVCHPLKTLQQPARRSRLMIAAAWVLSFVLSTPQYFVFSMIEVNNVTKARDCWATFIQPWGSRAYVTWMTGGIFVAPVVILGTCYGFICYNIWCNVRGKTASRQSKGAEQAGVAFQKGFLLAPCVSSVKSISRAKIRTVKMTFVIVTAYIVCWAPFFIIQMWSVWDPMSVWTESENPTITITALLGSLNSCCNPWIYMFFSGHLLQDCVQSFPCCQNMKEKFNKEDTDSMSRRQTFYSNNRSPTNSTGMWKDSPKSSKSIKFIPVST

Rattus norvegicus [6] = assay: Urine volume was measured after 4 hours following oral compound dose of 10 mg/kg in a volume of 10 mL/kg (20% dimethylsulfoxide in 2.5% preboiled starch) in rats deprived with food or water; format: functional
[7] = molecular target: Vasopressin V1a receptor (Rattus norvegicus) (UniProt P30560); assay: In vitro inhibition against rat V1a receptor at 10 uM
Chain of Vasopressin V1a receptor (Rattus norvegicus) (P30560 whole entry, looked up): as the sequence (P30560 whole entry) above

Vasopressin V2 receptor [8] = molecular target: T1, Vasopressin V2 receptor; assay: In vitro for its binding affinity to rat V2 receptor
Vasopressin V1a receptor [9] = molecular target: T3, Vasopressin V1a receptor; assay: In vitro inhibition against human V1a receptor at 10 uM
Target sequence in this assay (P37288 whole entry, looked up): as the sequence (P37288 whole entry) above

Vasopressin V2 receptor [10] = molecular target: T2, Vasopressin V2 receptor; assay: In vitro inhibition against human V2 receptor at 10 uM
Rattus norvegicus [11] = assay: Urine volume was measured after 4 hours following oral compound dose of 3 mg/kg in rats deprived with food or water; format: functional

Cn1cc2c(n1)-c1sccc1N(C(=O)c1ccc(NC(=O)c3ccc(Cl)cc3Cl)cc1)CC2
Urine volume (Rattus norvegicus [1]): 6 ml 4hr-1
IC50 (Vasopressin V2 receptor [2]): 38 nM
IC50 (Vasopressin V2 receptor [3]): 150 nM
IC50 (Vasopressin V1a receptor [4]): 2100 nM
IC50 (Vasopressin V1a receptor [5]): 4100 nM

O=C(Nc1ccc(C(=O)N2CCCCc3sc(Cl)cc32)cc1)c1ccc(Cl)cc1Cl
Urine volume (Rattus norvegicus [1]): 8 ml 4hr-1

O=C(Nc1ccc(C(=O)N2CCc3c[nH]nc3-c3sccc32)c(Cl)c1)c1cc(Cl)ccc1F
Urine volume (Rattus norvegicus [6]): 12 ml 4hr-1
inhibition [7]: 18%

O=C(Nc1ccc(C(=O)N2CCCCc3sc(Cl)cc32)cc1)c1ccccc1-c1ccccc1
Urine volume (Rattus norvegicus [6]): 20 ml 4hr-1
IC50 (Vasopressin V2 receptor [2]): 3.2 nM
IC50 (Vasopressin V1a receptor [5]): 82 nM

Cc1ccc(F)cc1C(=O)Nc1ccc(C(=O)N2CCc3c[nH]nc3-c3sccc32)c(Cl)c1
Urine volume (Rattus norvegicus [6]): 7 ml 4hr-1
IC50 (Vasopressin V1a receptor [4]): 12400 nM
IC50 (Vasopressin V2 receptor [8]): 6 nM
inhibition (Vasopressin V1a receptor [9]): 69%

O=C(Nc1ccc(C(=O)N2CCc3c[nH]nc3-c3sccc32)cc1)c1ccc(F)cc1Cl
Urine volume (Rattus norvegicus [6]): 15 ml 4hr-1
IC50 (Vasopressin V2 receptor [3]): 140 nM

Cc1ccccc1C(=O)Nc1ccc(C(=O)N2CCc3cn(C(=O)c4ccccc4C)nc3-c3sccc32)cc1
Urine volume (Rattus norvegicus [1]): 14 ml 4hr-1
inhibition (Vasopressin V2 receptor [10]): 88%
inhibition (Vasopressin V1a receptor [9]): 88%

O=C(Nc1ccc(C(=O)N2CCCCc3sc(Cl)cc32)c(Cl)c1)c1ccccc1-c1ccccc1
Urine volume (Rattus norvegicus [6]): 22 ml 4hr-1

O=C(Nc1ccc(C(=O)N2CCc3c[nH]nc3-c3sccc32)c(Cl)c1)c1ccccc1-c1ccccc1
Urine volume (Rattus norvegicus [6]): 27 ml 4hr-1
Urine volume (Rattus norvegicus [11]): 22 ml 4hr-1
IC50 (Vasopressin V2 receptor [3]): 1.7 nM

Cc1ccc(F)cc1C(=O)Nc1ccc(C(=O)N2Cc3cccn3Cc3ccccc32)c(Cl)c1 [LIXIVAPTAN]
Urine volume (Rattus norvegicus [6]): 22 ml 4hr-1
Urine volume (Rattus norvegicus [11]): 20 ml 4hr-1

Cn1cc2c(n1)-c1sccc1N(C(=O)c1ccc(NC(=O)C3CCCCC3)cc1)CC2
Urine volume (Rattus norvegicus [1]): 9 ml 4hr-1

O=C(Nc1ccc(C(=O)N2Cc3cccn3Cc3ccccc32)cc1)c1ccccc1-c1ccccc1
Urine volume (Rattus norvegicus [6]): 21 ml 4hr-1

O=C(Nc1ccc(C(=O)N2Cc3cccn3Cc3ccccc32)c(Cl)c1)c1ccccc1-c1ccccc1
Urine volume (Rattus norvegicus [6]): 27 ml 4hr-1
Urine volume (Rattus norvegicus [11]): 20 ml 4hr-1
IC50 (Vasopressin V2 receptor [3]): 2.7 nM
IC50 (Vasopressin V1a receptor [5]): 370 nM

Cc1ccccc1C(=O)Nc1ccc(C(=O)N2CCc3cn(C)nc3-c3sccc32)cc1
Urine volume (Rattus norvegicus [6]): 3 ml 4hr-1
IC50 (Vasopressin V2 receptor [2]): 24 nM
IC50 (Vasopressin V2 receptor [3]): 220 nM
IC50 (Vasopressin V1a receptor [4]): 2010 nM
IC50 (Vasopressin V1a receptor [5]): 1740 nM

Cc1ccc(F)cc1C(=O)Nc1ccc(C(=O)N2CCCCc3sccc32)c(Cl)c1
Urine volume (Rattus norvegicus [1]): 4 ml 4hr-1

Cc1ccccc1C(=O)Nc1ccc(C(=O)N2CCc3c[nH]nc3-c3sccc32)cc1
Urine volume (Rattus norvegicus [1]): 21 ml 4hr-1
IC50 (Vasopressin V2 receptor [3]): 130 nM
IC50 (Vasopressin V1a receptor [4]): 2100 nM
IC50 (Vasopressin V1a receptor [5]): 240 nM
IC50 (Vasopressin V2 receptor [8]): 120 nM

Cc1ccc(F)cc1C(=O)Nc1ccc(C(=O)N2CCc3c[nH]nc3-c3sccc32)cc1
Urine volume (Rattus norvegicus [1]): 18 ml 4hr-1
IC50 (Vasopressin V2 receptor [3]): 71 nM
IC50 (Vasopressin V2 receptor [8]): 69 nM

O=C(Nc1ccc(C(=O)N2CCCCc3sccc32)c(Cl)c1)c1ccccc1-c1ccccc1
Urine volume (Rattus norvegicus [6]): 19 ml 4hr-1
IC50 (Vasopressin V2 receptor [2]): 1.2 nM
IC50 (Vasopressin V1a receptor [5]): 86 nM

O=C(Nc1ccc(C(=O)N2Cc3cccn3Cc3ccccc32)cc1)c1ccc(Cl)cc1Cl
Urine volume (Rattus norvegicus [1]): 16 ml 4hr-1
